This note sets out measurements from patent publication US12528816B2, “Substituted imidazo [1,2-b] pyridazines and [1, 2, 4] triazolo [ 4,3-b] pyridazines as camkii inhibitors” (Cardurion Pharmaceuticals, INC., priority 2020, dated 2026).

Read-outs that look alike come from different tables or passages of the source.

This assay addresses T1, human CaMKIIδ (Homo sapiens, UniProt Q13557).
T1 construct: Full-length, glutathione-S-transferase(GST)-tagged, human CaMKIIδ was purchased from Carna Biosciences; purchased Carna Biosciences (CaMKIIδ); Wako Pure Chemical Industries (calmodulin) 02-111
Kind of assay: Evaluation of in vitro CaMKII inhibitory activity (binding assay, TR-FRET). The following applies: human CaMKIIδ. The essentials: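 Inhibitors, in eight concentrations of 4-fold dilution, were incubated 1 h at room temperature with a protein–fluorescent probe premix preformed 30 min on ice, containing calmodulin and terbium anti-GST antibody. Displacement read by TR-FRET in duplicate; IC50 by logistic fitting.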

Where [1] appears, read: TR-FRET binding assay, class symbols A/B/C, read-out: Act (CaMKII inhibitory activity, binding assay).
The mark [2] stands for this setting: in vitro CaMKII inhibitory activity (binding assay), read-out: Act.

In the case of `Cc1nn2ccc(-c3ccc(F)c(O[C@@H](C)Cn4cnnn4)c3)nc2c1-c1cccs1` [Example 57, 1-[(2S)-2-{2-fluoro-5-[2-methyl-3-(thiophen-2-yl)pyrazolo[1,5-a]pyrimidin-5-yl]phenoxy}propyl]-1H-tetrazole], under setting [1], the IC50 was in the range of 10 to 100 nM.
Take `CC(C)CCNC(=O)c1cccc(-c2cnn3ccc(-c4cccc(O[C@@H](C)Cn5cnnn5)c4)nc23)c1` [compound 64]: under setting [1], the IC50 is under 10 nM.
Turning to `C[C@@H](Cn1cnnn1)Oc1cccc(-c2ccc3ncc(-c4ccccc4CN(C)C)n3n2)c1` [compound 307], the IC50 under setting [2] is 10 to 100 nM.
Consider `C[C@@H](Cn1cnnn1)Oc1cc(-c2ccc3ncn(-c4ccn(C)n4)c3n2)ccc1F` [compound 122], for which the IC50 under setting [1] is under 10 nM.
`COCCCn1ncc(-c2cnc3ccc(-c4ccc(F)c(O[C@@H](C)Cn5cnnn5)c4)nn23)c1C(=O)NCCOC` [compound 237]: under setting [2], the IC50 is over 100 nM.
On to `C[C@@H](Cn1cnnn1)Oc1cccc(-c2ccn3ncc(-c4cccc(C(=O)NCC5CCOCC5)c4)c3n2)c1` [compound 100], for which the IC50 under setting [1] was under 10 nM.
Consider `C[C@@H](Cn1cnnn1)Oc1cc(-c2ccc3ncc(-c4cccc(N=S5(=O)CCCC5)c4C#N)n3n2)ccc1F` [compound 258], for which the IC50 under setting [2] is under 10 nM.
With `C[C@@H](Cn1cnnn1)Oc1cc(-c2ccc3ncc(-c4cccc(N=S(C)(C)=O)c4C#N)n3n2)ccc1F` [compound 191], the IC50 under setting [1] is under 10 nM.
For `C[C@@H](Cn1cnnn1)Oc1cccc(-c2ccc3ncc(-c4ccncc4C#N)n3n2)c1` [compound 279, 4-[6-(3-{[(2S)-1-(1H-tetrazol-1-yl)propan-2-yl]oxy}phenyl)imidazo[1,2-b]pyridazin-3-yl]pyridine-3-carbonitrile], under setting [2], the IC50 is under 10 nM.
The same measure, in the same setting: as for `COc1ccnc(-n2cnc3ccc(-c4ccc(F)c(O[C@@H](C)Cn5cnnn5)c4)nc32)c1C#N` [compound 355], the figure is under 10 nM; as for `C[C@@H](Cn1cnnn1)Oc1cccc(-c2ccc3ncc(-c4cc(=O)[nH]cc4C#N)n3n2)c1` [compound 318], under 10 nM.
The same measure, in the same setting: as for `C[C@@H](Cn1cnnn1)Oc1cccc(-c2ccc3ncc(-c4ncc(F)cc4C#N)n3n2)c1` [compound 450], the figure is under 10 nM.
With `C[C@@H](Cn1cnnn1)Oc1cccc(-c2ccn3ncc(-c4cccc(C(=O)NCc5ccccc5)c4)c3n2)c1` [compound 91], under setting [1], the IC50 is under 10 nM.
As for `C[C@@H](Cn1cnnn1)Oc1cccc(-c2ccc3ncc(-c4nccc(C(F)F)c4C#N)n3n2)c1` [compound 401], under setting [2], the IC50 was under 10 nM.
Same read-out and setting: as for `C[C@@H](Cn1cnnn1)Oc1cc(-c2ccc3ncc(-c4ncccc4C#N)n3n2)ccc1F` [Example 247, 2-[6-(4-fluoro-3-{[(2S)-1-(1H-tetrazol-1-yl)propan-2-yl]oxy}phenyl)imidazo[1,2-b]pyridazin-3-yl]pyridine-3-carbonitrile], the figure is under 10 nM; as for `COc1ncc(C)cc1-c1cnc2ccc(-c3cccc(O[C@@H](C)Cn4cnnn4)c3)nn12` [compound 327], under 10 nM.
The same measure, in the same setting: under `C[C@@H](Cn1cnnn1)Oc1cncc(-c2ccc3ncc(-c4ccccc4C#N)n3n2)c1` [Example 244, 2-[6-(5-{[(2S)-1-(1H-tetrazol-1-yl)propan-2-yl]oxy}pyridin-3-yl)imidazo[1,2-b]pyridazin-3-yl]benzonitrile] stands under 10 nM; under `C[C@@H](Cn1cnnn1)Oc1cccc(-c2ccc3ncc(-c4nccnc4C#N)n3n2)c1` [compound 262], under 10 nM.
Take `C[C@@H](Cn1cnnn1)Oc1cccc(-c2ccc3ncc(-c4nccc(C5CC5)c4C#N)n3n2)c1` [compound 274]: the IC50 under setting [2] is under 10 nM.
Same read-out and setting: as for `C[C@@H](Cn1cnnn1)Oc1cc(-c2ccc3ncc(-c4ccn5ccnc5c4C#N)n3n2)ccc1F` [compound 250], the figure is under 10 nM; as for `COc1cc(-c2cnc3ccc(-c4cccc(O[C@@H](C)Cn5cnnn5)c4)nn23)c(F)cn1` [compound 351], under 10 nM.
On to `COc1ccnc(-c2cnc3ccc(-c4ccc(F)c(N(C)[C@@H](C)Cn5cnnn5)c4)nn23)c1C#N` [compound 479], for which the IC50 under setting [1] is over 100 nM.
`COc1nc(-c2cnc3ccc(-c4cccc(O[C@@H](C)Cn5cnnn5)c4)nn23)ccc1C#N` [compound 312]: under setting [2], the IC50 was under 10 nM.
Turning to `C[C@@H](Cn1cnnn1)Oc1cc(-c2ccn3ncc(-c4cccc(OCC5CC5)c4)c3n2)ccc1F` [compound 54], the IC50 under setting [1] fell in the range of 10 to 100 nM.
For the molecule `CC(O)c1ccc(C#N)c(-c2cnc3ccc(-c4cccc(O[C@@H](C)Cn5cnnn5)c4)nn23)n1` (stereo partly drawn) [compound 390], the IC50 under setting [2] was under 10 nM.
In the case of `C[C@@H](Cn1cnnn1)Oc1cc(-c2ccc3ncc(-c4cccc(OCCN5CCCC5=O)c4C#N)n3n2)ccc1F` [compound 207], under setting [1], the IC50 was under 10 nM.
Regarding `C[C@@H](Cn1cnnn1)Oc1cccc(-c2ccn3ncc(-c4ncccc4C#N)c3n2)c1` [compound 304], the IC50 under setting [2] was under 10 nM.
In the case of `C[C@@H](Cn1cnnn1)Oc1cccc(-c2ccn3ncc(-c4cccc(C(=O)NCCc5ccncc5)c4)c3n2)c1` [compound 107], under setting [1], the IC50 was under 10 nM.
On the same count and under the same terms, as for `COc1ccnc(-c2cnn3ccc(-c4ccc(F)c(O[C@@H](C)Cn5cnnn5)c4)nc23)c1` [compound 140], the figure is 10 to 100 nM.
Regarding `C[C@@H](Cn1cnnn1)Oc1cccc(-c2ccc3ncc(-c4ccccc4C=O)n3n2)c1` [compound 303], the IC50 under setting [2] was under 10 nM.
On to `CC(=O)NC1CCN(C(=O)c2cccc(-c3cnn4ccc(-c5cccc(O[C@@H](C)Cn6cnnn6)c5)nc34)c2)CC1` [compound 73], for which the IC50 under setting [1] fell in the range of 10 to 100 nM.
On the same count and under the same terms, as for `C[C@@H](Cn1cnnn1)Oc1cccc(-c2ccn3ncc(-c4cccc(C(=O)NCCc5ccccc5)c4)c3n2)c1` [compound 105], the figure is 10 to 100 nM.
With `C[C@@H](Cn1cnnn1)Oc1cc(-c2ccc3ncn(-c4cccc(C#N)n4)c3n2)ccc1F` [compound 159], under setting [1], the IC50 is under 10 nM.
The same measure, in the same setting: under `C[C@@H](Cn1cnnn1)Oc1cccc(-c2ccn3ncc(-c4cccc(C(=O)Nc5cn[nH]c5)c4)c3n2)c1` [compound 65] stands under 10 nM; under `CNC(=O)c1ccc(C#N)c(-c2cnc3ccc(-c4ccc(F)c(O[C@@H](C)Cn5cnnn5)c4)nn23)c1` [compound 168], under 10 nM.
For the molecule `C[C@@H](Cn1cnnn1)Oc1cc(-c2ccc3ncn(-c4ncccc4C#N)c3n2)ccc1Cl` [compound 368], the IC50 under setting [2] fell in the range of 10 to 100 nM.
Consider `C[C@@H](Cn1cnnn1)Oc1cc(-c2ccn3ncc(-c4cccc(CN(C)C)c4)c3n2)ccc1F` [compound 40], for which the IC50 under setting [1] was under 10 nM.
As for `C[C@@H](Cn1cnnn1)Oc1cccc(-c2ccc3ncc(-c4ccccc4C#N)n3n2)c1` [Example 239, 2-[6-(3-{[(2S)-1-(1H-tetrazol-1-yl)propan-2-yl]oxy}phenyl)imidazo[1,2-b]pyridazin-3-yl]benzonitrile], the IC50 under setting [2] is under 10 nM.
As for `CCN(CC)CCNC(=O)c1cccc(-n2cnc3ccc(-c4ccc(C#N)c(O[C@@H](C)Cn5cnnn5)c4)nc32)c1` [compound 11], the IC50 under setting [1] is over 100 nM.
In the case of `C[C@@H](Cn1cnnn1)Oc1cc(-c2ccc3ncc(-c4cccc(OCCN5C(=O)CCC5=O)c4C#N)n3n2)ccc1F` [compound 211], under setting [1], the IC50 was under 10 nM.
For the molecule `Cc1c[nH]c(=O)c(-c2cnc3ccc(-c4cccc(O[C@@H](C)Cn5cnnn5)c4)nn23)c1` [compound 329], the IC50 under setting [2] was under 10 nM.
Still for that read-out and setting: under `C[C@@H](Cn1cnnn1)Oc1cccc(-c2ccc3ncc(-c4cccc(OC(F)F)c4C#N)n3n2)c1` [Example 412, 2-(difluoromethoxy)-6-[6-(3-{[(2S)-1-(1H-tetrazol-1-yl)propan-2-yl]oxy}phenyl)imidazo[1,2-b]pyridazin-3-yl]benzonitrile] stands under 10 nM.
With `C[C@@H](Cn1cnnn1)Oc1cccc(-c2ccn3ncc(-c4cccc(C(=O)NCC(C)(C)O)c4)c3n2)c1` [compound 80], under setting [1], the IC50 was under 10 nM.
On the same count and under the same terms, as for `C=Cc1ccccc1-c1cnc2ccc(-c3ccc(F)c(O[C@@H](C)Cn4cnnn4)c3)nn12` [compound 190], the figure is under 10 nM.
Turning to `C[C@@H](Cn1cnnn1)Oc1cc(-c2ccn3ncc(-c4cnccc4C#N)c3n2)ccc1F` [compound 138], the IC50 under setting [1] was under 10 nM.
With `C[C@@H](Cn1cnnn1)Oc1cncc(-c2ccc3ncn(-c4cc(C(F)F)ccc4C#N)c3n2)n1` [compound 384], the IC50 under setting [2] was over 100 nM.
Regarding `COc1cc(Cl)cc(-c2cnc3ccc(-c4cncc(O[C@@H](C)Cn5cnnn5)n4)nn23)c1C#N` [compound 455], under setting [2], the IC50 is under 10 nM.
Same read-out and setting: under `C[C@@H](Cn1cnnn1)Oc1ccc(F)c(-c2ccc3ncc(-c4ncccc4C#N)n3n2)c1` [compound 293] stands 10 to 100 nM.
As for `C[C@@H](Cn1cnnn1)Oc1cc(-c2ccc3ncc(-c4ccccn4)n3n2)ccc1F` [compound 227, 2-[6-(4-fluoro-3-{[(2S)-1-(1H-tetrazol-1-yl)propan-2-yl]oxy}phenyl)imidazo[1,2-b]pyridazin-3-yl]pyridine], under setting [1], the IC50 is under 10 nM.
Same read-out and setting: under `Cc1nn(C)cc1-c1cnn2ccc(-c3ccc(F)c(O[C@@H](C)Cn4cnnn4)c3)nc12` [compound 142] stands 10 to 100 nM.
Take `C[C@@H](Cn1cnnn1)Oc1cccc(-c2ccc3ncn(-c4cccc(C(F)F)c4C#N)c3n2)c1` [compound 395]: the IC50 under setting [2] is under 10 nM.
For `C[C@@H](Cn1cnnn1)Oc1cccc(-c2ccn3ncc(-c4cccc(C(=O)N5CCn6ncnc6C5)c4)c3n2)c1` [compound 110], under setting [1], the IC50 fell in the range of 10 to 100 nM.
For `C[C@@H](Cn1cnnn1)Oc1cc(-c2ccn3ncc(-c4ccccc4C(F)F)c3n2)ccc1F` [compound 149], under setting [1], the IC50 fell in the range of 10 to 100 nM.
As to `C[C@@H](Cn1cnnn1)Oc1cc(-c2ccc3ncc(-c4cnccc4C#N)n3n2)ccc1F` [Example 275, 3-[6-(4-fluoro-3-{[(2S)-1-(1H-tetrazol-1-yl)propan-2-yl]oxy}phenyl)imidazo[1,2-b]pyridazin-3-yl]pyridine-4-carbonitrile], the IC50 under setting [2] was under 10 nM.
